Patent publication US20240199587A1, “HETEROCYCLIC COMPOUNDS” (Hoffmann-La Roche Inc., priority 2021, published 2024)

target: T1, MAGL (Homo sapiens, UniProt Q99685); assay: 2-AG assay (MAGL inhibitory activity, hydrolysis of 2-arachidonoylglycerol to arachidonic acid followed by mass spectrometry); assay type: biochemical; conditions: 8 μM 2-arachidonoylglycerol, 15 min pre-incubation, 30 min incubation at RT, RapidFire MS readout
T1 sequence (Q99685 1-303): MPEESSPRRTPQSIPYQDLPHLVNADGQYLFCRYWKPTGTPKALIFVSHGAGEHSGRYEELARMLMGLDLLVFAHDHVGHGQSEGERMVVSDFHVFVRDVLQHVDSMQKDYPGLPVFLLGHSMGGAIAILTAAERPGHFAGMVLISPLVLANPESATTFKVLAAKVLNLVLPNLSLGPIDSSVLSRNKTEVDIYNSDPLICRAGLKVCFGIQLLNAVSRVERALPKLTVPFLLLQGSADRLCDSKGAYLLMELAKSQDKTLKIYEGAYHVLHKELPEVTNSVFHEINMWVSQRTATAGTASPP
In short: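 Human MAGL ([…] final) pre-incubated 15 min at RT with compound in 50 mM TRIS, 1 mM EDTA, 0.01% Tween-20, 2.5% DMSO; 8 μM 2-AG then added for 30 min at RT. Acetonitrile quench with d8-arachidonic acid; arachidonic acid measured by RapidFire SPE–MS/MS, activity from arachidonic acid/d8 ratio.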

SMILES | IC50
O=C(N1CC(OCc2ccc(S(F)(F)(F)(F)F)cc2F)C1)N1CC2(CC(n3cnc(C4CC4)c3)C2)C1 [Example 105, [6-(4-cyclopropylimidazol-1-yl)-2-azaspiro[3.3]heptan-2-yl]-[3-[[2-fluoro-4-(pentafluoro-λ^6-sulfanyl)phenyl]methoxy]azetidin-1-yl]methanone] | 3.9 nM
O=C(N1CC(c2ccc(N3CC(O)(C(F)(F)F)C3)nc2)C1)N1CC2(CC(n3cnc(C4CC4)n3)C2)C1 [Example 206, [6-(3-cyclopropyl-1,2,4-triazol-1-yl)-2-azaspiro[3.3]heptan-2-yl]-[3-[6-[3-hydroxy-3-(trifluoromethyl)azetidin-1-yl]-3-pyridyl]azetidin-1-yl]methanone] | 0.9 nM
O=C(N1C[C@H]2CC(Oc3ccc(F)cc3Cl)C[C@H]2C1)N1CC2(CC(n3cnc(C4CC4)n3)C2)C1 (mixture of isomers) [Example 93, [6-(3-cyclopropyl-1,2,4-triazol-1-yl)-2-azaspiro[3.3]heptan-2-yl]-[rac-(3aR,6aS)-5-(2-chloro-4-fluoro-phenoxy)-3,3a,4,5,6,6a-hexahydro-1H-cyclopenta[c]pyrrol-2-yl]methanone] | 1 nM
O=C(N1CC2(CC(n3cnc(C4CC4)n3)C2)C1)N1CC2(C1)CN(S(=O)(=O)Cc1ccccc1)C2 [Example 265, (2-benzylsulfonyl-2,6-diazaspiro[3.3]heptan-6-yl)-[6-(3-cyclopropyl-1,2,4-triazol-1-yl)-2-azaspiro[3.3]heptan-2-yl]methanone] | 27.5 nM
CC(C)(C)CS(=O)(=O)NC1CC2(C1)CN(C(=O)N1CC3(CC(n4cnc(C5CC5)n4)C3)C1)C2 [Example 215, N-[2-[6-(3-cyclopropyl-1,2,4-triazol-1-yl)-2-azaspiro[3.3]heptane-2-carbonyl]-2-azaspiro[3.3]heptan-6-yl]-2,2-dimethyl-propane-1-sulfonamide] | 1.7 nM
CP(C)(=O)c1ccc(CC2CC3(C2)CN(C(=O)N2CC4(CC(n5cnc(C6CC6)n5)C4)C2)C3)nc1 [Example 378, [6-(3-cyclopropyl-1,2,4-triazol-1-yl)-2-azaspiro[3.3]heptan-2-yl]-[6-[(5-dimethylphosphoryl-2-pyridyl)methyl]-2-azaspiro[3.3]heptan-2-yl]methanone] | 106 nM
CS(=O)(=O)c1ccc(CC2CC3(C2)CN(C(=O)N2CC4(CC(n5cnc(C(F)(F)F)n5)C4)C2)C3)cc1 [Example 455, [6-[(4-methylsulfonylphenyl)methyl]-2-azaspiro[3.3]heptan-2-yl]-[6-[3-(trifluoromethyl)-1,2,4-triazol-1-yl]-2-azaspiro[3.3]heptan-2-yl]methanone] | 1.25 nM
NC(=O)[C@@H](c1ccc(F)cc1)N1CCN(C(=O)N2CC3(CC(n4cnc(C5CC5)n4)C3)C2)CC1 [Example 326, (2R)-2-[4-[6-(3-cyclopropyl-1,2,4-triazol-1-yl)-2-azaspiro[3.3]heptane-2-carbonyl]piperazin-1-yl]-2-(4-fluorophenyl)acetamide] | 583 nM
COc1ccccc1S(=O)(=O)N1CC2(CN(C(=O)N3CC4(CC(n5cnc(C6CC6)n5)C4)C3)C2)C1 [Example 251, [6-(3-cyclopropyl-1,2,4-triazol-1-yl)-2-azaspiro[3.3]heptan-2-yl]-[2-(2-methoxyphenyl)sulfonyl-2,6-diazaspiro[3.3]heptan-6-yl]methanone] | 15.5 nM
O=C(N1CC2(CC(n3cnc(C4CC4)n3)C2)C1)N1CC2(C1)CN(S(=O)(=O)C(F)(F)F)C2 [Example 304, [6-(3-cyclopropyl-1,2,4-triazol-1-yl)-2-azaspiro[3.3]heptan-2-yl]-[2-(trifluoromethylsulfonyl)-2,6-diazaspiro[3.3]heptan-6-yl]methanone] | 108 nM
O=C(N1CC(c2ccc(N3CC(O)(C(F)(F)F)C3)nc2)C1)N1CC2(CC(n3cnc(C(F)(F)F)n3)C2)C1 [Example 452, [3-[6-[3-hydroxy-3-(trifluoromethyl)azetidin-1-yl]-3-pyridyl]azetidin-1-yl]-[6-[3-(trifluoromethyl)-1,2,4-triazol-1-yl]-2-azaspiro[3.3]heptan-2-yl]methanone] | 3.69 nM
CC(C)(C)c1nc(-c2ccc(C(=O)N3CC4(CC(n5cc(C#N)cn5)C4)C3)cc2)no1 [compound 21, 1-[2-[4-(5-tert-butyl-1,2,4-oxadiazol-3-yl)benzoyl]-2-azaspiro[3.3]heptan-6-yl]pyrazole-4-carbonitrile] | 3370 nM
O=C(c1ccc(F)cc1C(F)(F)F)N1CC2(C1)CN(C(=O)N1CC3(CC(n4cnc(C5CC5)n4)C3)C1)C2 [Example 275, [2-[6-(3-cyclopropyl-1,2,4-triazol-1-yl)-2-azaspiro[3.3]heptane-2-carbonyl]-2,6-diazaspiro[3.3]heptan-6-yl]-[4-fluoro-2-(trifluoromethyl)phenyl] methanone] | 35.3 nM
Cc1ccc(COC2CN(C(=O)N3CC4(CC(n5cnc(C6CC6)c5)C4)C3)C2)cc1C(F)(F)F [Example 106, [6-(4-cyclopropylimidazol-1-yl)-2-azaspiro[3.3]heptan-2-yl]-[3-[[4-methyl-3-(trifluoromethyl)phenyl]methoxy]azetidin-1-yl]methanone] | 4.1 nM
O=C(N1CC2(CC(n3cnc(C4CC4)n3)C2)C1)N1CC2(C1)CN(S(=O)(=O)c1cc(F)cc(C(F)(F)F)c1)C2 [Example 226, [6-(3-cyclopropyl-1,2,4-triazol-1-yl)-2-azaspiro[3.3]heptan-2-yl]-[2-[3-fluoro-5-(trifluoromethyl)phenyl]sulfonyl-2,6-diazaspiro[3.3]heptan-6-yl]methanone] | 3.6 nM
CC(C)(C(=O)O)c1cccc(OC2CN(C(=O)N3CC4(CC(n5cnc(C6CC6)n5)C4)C3)C2)c1 [Example 279, 2-[3-[1-[6-(3-cyclopropyl-1,2,4-triazol-1-yl)-2-azaspiro[3.3]heptane-2-carbonyl]azetidin-3-yl]oxyphenyl]-2-methyl-propanoic acid] | 38 nM
O=C(N1CC2(CC(Oc3ccc(OC(F)(F)F)cc3)C2)C1)N1CC2(CC(n3cnc(C4CC4)n3)C2)C1 [Example 54, [6-(3-cyclopropyl-1,2,4-triazol-1-yl)-2-azaspiro[3.3]heptan-2-yl]-[6-[4-(trifluoromethoxy)phe-noxy]-2-azaspiro[3.3]heptan-2-yl]methanone] | 1.2 nM
O=C(N1CC(OCc2ccc(C(F)(F)F)cc2)C1)N1CC2(CC(n3cnc(N4CCC4)n3)C2)C1 [Example 177, (6-(3-(azetidin-1-yl)-1H-1,2,4-triazol-1-yl)-2-azaspiro[3.3]heptan-2-yl)(3-((4-(trifluoromethyl)benzyl)oxy)azetidin-1-yl)methanone] | 141 nM
O=C(N1CC(OCc2cccc(S(=O)(=O)C(F)(F)F)c2)C1)N1CC2(CC(n3cnc(C4CC4)n3)C2)C1 [Example 498, [6-(3-cyclopropyl-1,2,4-triazol-1-yl)-2-azaspiro[3.3]heptan-2-yl]-[3-[[3-(trifluoromethylsulfonyl)phenyl]methoxy]azetidin-1-yl]methanone] | 1.69 nM
O=C(N1CC2(CC(Oc3cnc(C(F)(F)F)cn3)C2)C1)N1CC2(CC(n3cnc(C4CC4)n3)C2)C1 [Example 70, [6-(3-cyclopropyl-1,2,4-triazol-1-yl)-2-azaspiro[3.3]heptan-2-yl]-[6-[5-(trifluoromethyl)pyrazin-2-yl]oxy-2-azaspiro[3.3]heptan-2-yl]methanone] | 2.1 nM
CS(=N)(=O)c1ccc(CC2CC3(C2)CN(C(=O)N2CC4(CC(n5cnc(C6CC6)n5)C4)C2)C3)cc1 (centres unmarked) [Example 462, [6-(3-cyclopropyl-1,2,4-triazol-1-yl)-2-azaspiro[3.3]heptan-2-yl]-[6-[[4-(methylsulfonimidoyl)phenyl]methyl]-2-azaspiro[3.3]heptan-2-yl]methanone] | 2.94 nM
O=C(N1CC(C23CC(c4nnc(C5(C(F)(F)F)CC5)[nH]4)(C2)C3)C1)N1CC2(CC(n3cnc(C(F)(F)F)n3)C2)C1 [Example 418, [3-[3-[5-[1-(trifluoromethyl)cyclopropyl]-4H-1,2,4-triazol-3-yl]-1-bicyclo[1.1.1]pentanyl]azetidin-1-yl]-[6-[3-(trifluoromethyl)-1,2,4-triazol-1-yl]-2-azaspiro[3.3]heptan-2-yl]methanone] | 4.75 nM
O=C(N1CC2(CC(NC(=O)C3(C(F)(F)F)CC3)C2)C1)N1CC2(CC(n3cnc(C4CC4)n3)C2)C1 [Example 277, N-[2-[6-(3-cyclopropyl-1,2,4-triazol-1-yl)-2-azaspiro[3.3]heptane-2-carbonyl]-2-azaspiro[3.3]heptan-6-yl]-1-(trifluoromethyl) cyclo-propanecarboxamide] | 37.2 nM
O=C(N1CC(OCc2ccc(F)cc2F)C1)N1CC2(CC(n3cnc(C4CC4)c3)C2)C1 [Example 110, [6-(4-cyclopropylimidazol-1-yl)-2-azaspiro[3.3]heptan-2-yl]-[3-[(2,4-difluorophenyl)methoxy]azetidin-1-yl]methanone] | 65.8 nM
O=C(N1CC2(CC(n3cnc(C4CC4)n3)C2)C1)N1CC2(CCN(Cc3ccc(C(F)(F)F)cn3)C2)C1 [Example 439, [6-(3-cyclopropyl-1,2,4-triazol-1-yl)-2-azaspiro[3.3]heptan-2-yl]-[7-[[5-(trifluoromethyl)-2-pyridyl]methyl]-2,7-diazaspiro[3.4]octan-2-yl]methanone] | 3.74 nM
O=C(N1CC(c2ccc(N3CC[C@@H](C(F)(F)F)C3)nc2)C1)N1CC2(CC(n3cnc(C(F)(F)F)n3)C2)C1 [Example 427, [3-[6-[(3R)-3-(trifluoromethyl)pyrrolidin-1-yl]-3-pyridyl]azetidin-1-yl]-[6-[3-(trifluoromethyl)-1,2,4-triazol-1-yl]-2-azaspiro[3.3]heptan-2-yl]methanone] | 0.53 nM
